According to ChEMBL document CHEMBL1777772, “Synthesis and evaluation of heteroarylalanine diacids as potent and selective neutral endopeptidase inhibitors” (Bioorg Med Chem Lett, 2011):

What was measured:
[1] = target: Neprilysin (Homo sapiens, UniProt P08473)
Description: Inhibition of neutral endopeptidase

[2] = target: Angiotensin-converting enzyme (Homo sapiens) (UniProt P12821)
[3] = Clearance in iv dosed rat; type: ADME, organism-based; conditions: in vivo
[4] = Half life in iv dosed rat; type: ADME, organism-based; conditions: in vivo
[5] = Oral bioavailability in rat; type: ADME, organism-based; conditions: in vivo

Angiotensin-converting enzyme (Homo sapiens), sequence (P12821 whole entry, looked up): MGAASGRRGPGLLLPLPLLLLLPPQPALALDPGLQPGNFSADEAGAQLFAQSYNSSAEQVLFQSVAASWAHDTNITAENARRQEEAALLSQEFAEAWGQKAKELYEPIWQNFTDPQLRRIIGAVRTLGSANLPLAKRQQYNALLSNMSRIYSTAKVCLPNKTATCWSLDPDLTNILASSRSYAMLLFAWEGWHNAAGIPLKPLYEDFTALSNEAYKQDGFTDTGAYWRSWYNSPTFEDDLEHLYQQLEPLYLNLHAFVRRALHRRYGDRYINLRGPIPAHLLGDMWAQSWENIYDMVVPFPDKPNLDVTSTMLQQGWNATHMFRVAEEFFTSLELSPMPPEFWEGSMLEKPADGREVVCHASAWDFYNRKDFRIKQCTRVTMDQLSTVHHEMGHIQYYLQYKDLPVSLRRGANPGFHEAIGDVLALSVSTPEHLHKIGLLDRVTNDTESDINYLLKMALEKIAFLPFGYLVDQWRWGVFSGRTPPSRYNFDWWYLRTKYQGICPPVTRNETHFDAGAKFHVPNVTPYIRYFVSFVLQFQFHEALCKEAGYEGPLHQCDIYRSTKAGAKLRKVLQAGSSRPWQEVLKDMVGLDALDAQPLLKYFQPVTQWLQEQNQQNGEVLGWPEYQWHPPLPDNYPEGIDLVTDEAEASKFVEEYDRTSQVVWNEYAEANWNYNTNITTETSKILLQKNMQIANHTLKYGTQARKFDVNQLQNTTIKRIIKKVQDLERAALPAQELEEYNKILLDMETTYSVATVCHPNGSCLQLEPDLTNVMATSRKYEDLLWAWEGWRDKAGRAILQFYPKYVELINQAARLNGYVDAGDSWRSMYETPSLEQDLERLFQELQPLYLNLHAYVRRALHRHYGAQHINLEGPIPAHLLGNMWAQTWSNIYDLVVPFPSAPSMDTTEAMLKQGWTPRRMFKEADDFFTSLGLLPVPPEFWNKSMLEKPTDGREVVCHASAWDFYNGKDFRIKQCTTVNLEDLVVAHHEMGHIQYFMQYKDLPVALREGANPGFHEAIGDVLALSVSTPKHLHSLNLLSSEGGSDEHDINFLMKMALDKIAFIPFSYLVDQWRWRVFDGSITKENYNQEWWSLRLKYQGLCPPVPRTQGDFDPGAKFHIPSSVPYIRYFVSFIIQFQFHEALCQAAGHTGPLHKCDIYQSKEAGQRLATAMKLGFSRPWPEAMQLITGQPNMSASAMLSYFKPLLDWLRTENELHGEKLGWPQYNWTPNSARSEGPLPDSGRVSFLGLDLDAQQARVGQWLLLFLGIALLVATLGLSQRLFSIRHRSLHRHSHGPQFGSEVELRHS
Neprilysin, sequence (P08473 whole entry): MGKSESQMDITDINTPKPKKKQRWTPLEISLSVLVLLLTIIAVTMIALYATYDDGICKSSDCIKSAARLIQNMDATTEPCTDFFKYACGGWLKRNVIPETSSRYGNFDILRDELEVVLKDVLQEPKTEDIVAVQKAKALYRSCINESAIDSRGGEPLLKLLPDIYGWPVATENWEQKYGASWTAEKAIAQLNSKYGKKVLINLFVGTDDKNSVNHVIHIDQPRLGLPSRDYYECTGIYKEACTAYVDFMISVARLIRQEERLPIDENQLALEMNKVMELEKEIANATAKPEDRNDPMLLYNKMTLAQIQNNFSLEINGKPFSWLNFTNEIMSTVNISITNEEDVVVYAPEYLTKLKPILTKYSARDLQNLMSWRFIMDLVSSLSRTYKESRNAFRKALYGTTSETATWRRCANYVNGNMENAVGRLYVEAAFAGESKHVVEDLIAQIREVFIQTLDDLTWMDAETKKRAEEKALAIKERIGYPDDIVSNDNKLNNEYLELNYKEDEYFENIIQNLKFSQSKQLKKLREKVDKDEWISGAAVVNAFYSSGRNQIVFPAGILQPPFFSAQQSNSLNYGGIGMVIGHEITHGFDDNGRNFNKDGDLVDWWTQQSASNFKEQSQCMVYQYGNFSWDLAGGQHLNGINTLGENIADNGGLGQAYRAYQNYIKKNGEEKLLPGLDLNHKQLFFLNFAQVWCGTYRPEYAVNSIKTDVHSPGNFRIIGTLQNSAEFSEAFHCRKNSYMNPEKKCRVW

Compound CC(C)CC[C@H](N[C@@H](CCc1ccccc1)C(=O)O)C(=O)N[C@@H](Cc1ccc(-c2ccccc2)cc1)C(=O)O has an IC50 [1] of 28 nM and an IC50 [2] of 1.5 nM.
In the case of CCC[C@H](NC1(C(=O)N[C@@H](Cc2nc(CC)co2)C(=O)O)CCCC1)C(=O)O, the IC50 [1] is reported as 22 nM and the IC50 [2] is reported as 130 nM.
Compound CCC[C@H](NC1(C(=O)N[C@@H](Cc2nc(CC(C)C)co2)C(=O)O)CCCC1)C(=O)O has an IC50 [1] of 20 nM and an IC50 [2] of 75 nM.
For CCC[C@H](NC1(C(=O)N[C@@H](Cc2nc(-c3ccccc3)co2)C(=O)O)CCCC1)C(=O)O, the IC50 [2] was 25 nM.
Work on CCC[C@H](NC1(C(=O)N[C@@H](Cc2ncc(-c3ccccc3)o2)C(=O)O)CCCC1)C(=O)O yielded an IC50 [2] of 82 nM.
In the case of COCC[C@H](NC1(C(=O)N[C@@H](Cc2nc(-c3ccccc3)co2)C(=O)O)CCCC1)C(=O)O, the IC50 [2] is reported as 130 nM.
In the case of COCC[C@H](NC1(C(=O)N[C@@H](Cc2ncc(-c3ccccc3)o2)C(=O)O)CCCC1)C(=O)O, the clearance [3] is reported as 4.8 mL/min/kg, the IC50 [2] is reported as 270 nM and the half-life [4] is reported as 2.1 h. It also gave a bioavailability [5] of 1.7%.
COCC[C@H](NC1(C(=O)N[C@@H](Cc2nc(C)c(-c3ccccc3)o2)C(=O)O)CCCC1)C(=O)O gave an IC50 [2] of 210 nM.
With COCC[C@H](NC1(C(=O)N[C@@H](Cc2ncc(-c3ccc(Cl)cc3)o2)C(=O)O)CCCC1)C(=O)O the IC50 [1] was 0.3 nM and the IC50 [2] was 195 nM.
COCC[C@H](NC1(C(=O)N[C@@H](Cc2nnc(-c3ccccc3)o2)C(=O)O)CCCC1)C(=O)O showed an IC50 [1] of 6 nM and an IC50 [2] greater than 3000 nM.
Work on COCC[C@H](NC1(C(=O)N[C@@H](Cc2nc(-c3ccccc3)no2)C(=O)O)CCCC1)C(=O)O yielded an IC50 [1] of 1.9 nM and an IC50 [2] of 58 nM.
With COCCOC[C@H](CC1(C(=O)N[C@H]2CC[C@@H](C(=O)O)CC2)CCCC1)C(=O)O [CANDOXATRILAT] the IC50 [1] was 7.8 nM and the IC50 [2] was “Not Active”.
In the case of CS(=O)(=O)N[C@@H](CCCCN)C(=O)NC[C@H](CC1(C(=O)N[C@@H](Cc2ccc(O)cc2)C(=O)O)CCCC1)C(=O)O [SAMPATRILAT], the IC50 [1] is reported as 0.6 nM and the IC50 [2] is reported as 3.4 nM.
